How the values were obtained:
[1] = system: db/db male mice; test: Body weight and fasting blood glucose, chiglitazar sodium with dapagliflozin (Example 2); format: in vivo; details: oral once a day for 14 days, 10 mg/kg chiglitazar sodium, 1.5 mg/kg dapagliflozin or both, FIG. 2
Protocol: Experimental design: the effects on body weight and blood glucose of single and combined medication were investigated, by oral administration of chiglitazar sodium, dapagliflozin, or a combination thereof to mice.
Wild-type C57BLKS/Jnju mice were used as normal control (administered with vehicle). The period of administration was 14 days, and the animals were treated and dissected on Day 15. Starting from the administration, the mice were subjected to weighing and measurement of fasting blood glucose (4-6 hours of fasting) every 3 days.

[2] = system: db/db male mice; test: Blood lipids (serum TC and TG), chiglitazar sodium with empagliflozin (Example 3); format: in vivo; details: oral once a day for 14 days, serum on Day 15, 10 mg/kg chiglitazar sodium, 3 mg/kg empagliflozin or both, FIG. 3
Protocol: Experimental design: the effects on total cholesterol (TC) and triglyceride (TG) in mouse serum of single and combined medication were investigated, by oral administration of chiglitazar sodium, empagliflozin, or a combination thereof to diabetic mice.
Experimental procedure: 6-Week-old db/db male mice were orally administered once a day with 100 µL of vehicle (0.1% sodium carboxymethylcellulose), 10 mg/kg chiglitazar sodium, 3 mg/kg empagliflozin, or a combination of chiglitazar sodium and empagliflozin at the same doses simultaneously, respectively, according to body weight. Wild-type C57BLKS/Jnju mice were used as normal control (administered with vehicle). The period of administration was 14 days, and the animals were treated and dissected on Day 15. Whole blood was collected, serum was centrifuged and serum TC and TG were measured by biochemical analyzer.

[3] = system: diabetic patients; details: clinical studies; cited from earlier work
[4] = system: db/db male mice; test: Body weight and fasting blood glucose, chiglitazar sodium with empagliflozin (Example 1); format: in vivo; details: oral once a day for 14 days, 10 mg/kg chiglitazar sodium, 3 mg/kg empagliflozin or both, FIG. 1; for fasting blood glucose: 4-6 hours of fasting
Protocol: Experimental design: the effects on body weight and blood glucose of single and combined medication were investigated, by oral administration of chiglitazar sodium, empagliflozin, or a combination thereof to mice.
Experimental procedure: 6-Week-old db/db male mice were orally administered once a day with 100 µL of vehicle (0.1% sodium carboxymethylcellulose), 10 mg/kg chiglitazar sodium, 3 mg/kg empagliflozin, or a combination of chiglitazar sodium and empagliflozin at the same doses simultaneously, respectively, according to body weight. Wild-type C57BLKS/Jnju mice were used as normal control (administered with the vehicle). The period of administration was 14 days, and the animals were treated and dissected on Day 15. Starting from the administration, the mice were subjected to weighing and measurement of fasting blood glucose (4-6 hours of fasting) every 3 days.

[5] = system: db/db male mice; test: Blood lipids (serum TC and TG), chiglitazar sodium with dapagliflozin (Example 4); format: in vivo; details: oral once a day for 14 days, serum on Day 15, 10 mg/kg chiglitazar sodium, 1.5 mg/kg dapagliflozin or both, FIG. 4
Protocol: Experimental design: the effects on total cholesterol (TC) and triglyceride (TG) in mouse serum of single and combined medication were investigated, by oral administration of chiglitazar sodium, dapagliflozin, or a combination thereof to diabetic mice.
Wild-type C57BLKS/Jnju mice were used as normal control (administered with vehicle). The period of administration was 14 days, and the animals were treated and dissected on Day 15. Whole blood was collected, serum was centrifuged and serum TC and TG were measured by biochemical analyzer.

Row | SMILES | fasting blood glucose ([1]; 4-6 hours of fasting) | body weight [1] | serum total cholesterol (TC) [2] | serum triglyceride (TG) [2] | efficacy on blood glucose and lipids in diabetic patients [3] | weight gain effect in diabetic patients [3] | fasting blood glucose [4] | body weight [4] | serum total cholesterol (TC) [5] | serum triglyceride (TG) [5]
1 | O=C(c1ccc(F)cc1)c1ccccc1NC(Cc1ccc(OCCn2c3ccccc3c3ccccc32)cc1)C(=O)O (stereo not shown) [chiglitazar sodium] | could reduce blood glucose to a certain extent | weight gain | could reduce the serum total cholesterol and triglyceride levels to a certain extent | could reduce the serum total cholesterol and triglyceride levels to a certain extent | has efficacy in reducing blood glucose and improving lipids in diabetic patients | having certain weight gain effect | could reduce blood glucose to a certain extent | weight gain | could reduce the serum total cholesterol and triglyceride levels to a certain extent | could reduce the serum total cholesterol and triglyceride levels to a certain extent
2 | OC[C@H]1O[C@@H](c2ccc(Cl)c(Cc3ccc(O[C@H]4CCOC4)cc3)c2)[C@H](O)[C@@H](O)[C@@H]1O [empagliflozin, reference compound] | – | – | could reduce the serum total cholesterol and triglyceride levels to a certain extent | could reduce the serum total cholesterol and triglyceride levels to a certain extent | – | – | could reduce blood glucose to a certain extent | – | – | –
